In paper PMC12196043, “In Vivo PK-PD and Drug–Drug Interaction Study of Dorzagliatin for the Management of PI3Kα Inhibitor-Induced Hyperglycemia” (Pharmaceuticals, 2025):
≈ marks a conversion by molar mass, not a printed value. Where “and” joins values, the source holds several entries; their conditions need not be identical. Identical values can stand only once. Like-named read-outs stand apart in the source and are kept apart here.

Legend:
[1] = system: CYP3A4; set-up: method as in ref 31 = [31]; 31. FDA Label of PIQRAY® (Alpelisib) FDA Silver Spring, MD, USA 2019; settings: repeated doses of 300 mg BYL719 with midazolam and other substrates, everolimus; cited from earlier work
[2] = Plasma pharmacokinetics by LC-MS/MS in OVCAR3 xenograft tumor-bearing nude mice; format: in vivo, BALB/c nude mice; settings: n = 3
Experimental: (§1) This study, approved by Fudan University Ethics Committee (protocol code: 201904008Z) on 26 April 2019, was conducted in compliance with AAALAC’s International Commission guidelines for laboratory animal evaluation and accreditation. A total of 36 female BALB/c nude mice (6–8 weeks old, weighing 18–20 g) were purchased from Charles River Laboratories (Pinghu, China). The OVCAR3 ovarian cancer cell line (ATCC® HTB-161™) was used to establish human xenografts. OVCAR3 cells (10 × 10^6) suspended in 0.2 mL of Matrigel were subcutaneously inoculated into the dorsal region of each mouse. Tumors were allowed to grow until reaching a volume of ~160 mm^3, typically around 30 days post-inoculation.
(§2) WX390 was prepared in Solvent-1, comprising dimethyl sulfoxide (DMSO): methylcellulose: water at a ratio of 1:1:98 (v/v/v). BYL719 and dorzagliatin were formulated in Solvent-2, consisting of Tween 80: water with 0.5% methylcellulose (MC) solution at a ratio of 0.2:99.8 (v/v). The treatment control was a combination of Solvent-1 and Solvent-2. The test compounds were administered orally as follows: WX390 at 0.2 mg/kg, BYL719 at 25 mg/kg, and dorzagliatin at 10 mg/kg, dissolved in their respective formulations. Due to ethical considerations regarding gavage volume the administration volume across all groups was standardized to 10 μL/g of body weight.
(§3) The experiment involved six treatment groups, each comprising six mice. The groups included: (i) vehicle control, (ii) WX390 (0.2 mg/kg), (iii) BYL719 (25 mg/kg), (iv) dorzagliatin (10 mg/kg), (v) WX390 (0.2 mg/kg) + dorzagliatin (10 mg/kg), and (vi) BYL719 (25 mg/kg) + dorzagliatin (10 mg/kg). All treatments were administered via oral gavage once daily for four weeks. In the combination group of PI3Ki and dorzagliatin, dorzagliatin was administered 30 min prior to PI3Ki.
Following the 4-week treatment period, all experimental groups were fasted 6 h before the last administration until the end of the experiment. Water was not restricted during the fasting period. Blood samples were collected at 0, 0.5, 1, 2, 4, and 8 h after administration. Each mouse had 3 blood collection points, with 50 μL of plasma collected at each point. Mice in each group were allocated to two cohorts: The first cohort underwent blood collection at 0, 1, and 2 h post-administration, while the second cohort was sampled at 0.5, 4, and 8 h post-administration. Terminal blood collection at the 2-h time point for the first cohort was performed via cardiac puncture following euthanasia, during which tumor tissues were concurrently harvested from this cohort. Blood samples were processed through centrifugation (4 °C, 1500× g for 10 min) for plasma separation. All plasma and tumor samples were immediately snap-frozen in liquid nitrogen and stored at −80 °C for subsequent analysis.
The extraction of WX390, BYL719, and dorzagliatin from plasma samples was performed using protein precipitation. Internal standards (IS) included SBL-D3, BNSL-D5, and PLPL-D8 for WX390, BYL719, and dorzagliatin, respectively. Plasma samples (20 μL) were mixed with 20 μL of zinc sulfate aqueous solution (0.1 mol/L) and 200 µL of a 50% methanol solution containing three internal standards followed by vortexing for 10 min. The samples were centrifuged at 4 °C (15,000× g for 5 min). The supernatant (180 μL) was transferred to a clean Eppendorf tube, and a 10 μL aliquot was injected into the LC-MS/MS system.
Chromatographic separations were performed using an AB SCIEX Jasper HPLC system coupled with an AB SCIEX Triple Quad 4500MD mass spectrometer (AB SCIEX, USA). A Phenomenex Kinetex C18 column (100 × 3 mm, 2.6 μm) was used at 40 °C. The flow rate was maintained at 0.4 mL/min with a total run time of 4 min. […]

[3] = human, in vivo; cited from earlier work
[4] = system: P-gp; settings: cited from earlier work
[5] = major metabolite BZG791; CYP3A4 to a lesser extent; no reference given; cited from earlier work
[6] = system: OVCAR3 xenograft tumor; test: In vivo tumor growth, OVCAR3 subcutaneous xenograft tumor model; set-up: species or system BALB/c nude mice; settings: n = 6; for T/C (Relative Tumor Growth Rate) / TGI (Tumor Growth Inhibition): based on tumor volume on day 28, vs vehicle; for Tumor Volume (Day 28): day 28 after administration, oral once daily, Dorz 10 mg/kg, WX390 0.2 mg/kg, BYL719 25 mg/kg, vehicle 1582 mm^3
Experimental: as §1, §2, §3
Tumor dimensions were measured biweekly using a vernier caliper. Tumor volume was calculated using the formula:(1) V=0.5a×b^2 where: • a represents the longest tumor diameter. • b represents the shortest diameter.
The antitumor efficacy of each group was evaluated using TGI or T/C. TGI (%) reflects the rate of tumor growth inhibition and is calculated as follows:(2) TGI%=1−Vend−V0exp/Vend−V0control×100% where: • Vend represents mean tumor volume at the end of treatment in the group. • V0 represents mean tumor volume at the start of treatment in the group. • exp represents the treated groups. • control represents the vehicle control group.
T/C (%) is calculated using the formula:(3) T/C%=TRTV/CRTV×100% where: • TRTV is the Relative Tumor Volume of the treatment group. • CRTV is the Relative Tumor Volume of the negative control group.
The Relative Tumor Volume (RTV) is calculated based on tumor measurement results using the formula:(4) RTV=Vt/V0 where: • V0 is the mean tumor volume at the time of grouping (day 0). • Vt is the mean tumor volume at a given measurement time.
TRTV and CRTV are based on data from the same day.
At the conclusion of the experiment, tumor weights were measured, and the T/C was calculated. Tweight and Cweight represent the tumor weights of the treatment group and the vehicle control group, respectively.

[7] = cited from earlier work
[8] = system: CYP1A2, 2A6, 2C9, 2C19, 2D6, 2E1, CYP3A4/5; set-up: method as in ref 32 = [32]; 32. Wang J. Zhao Z. Xu W. Hu X. Jin P. First Marketed Glucokinase Activator for Antidiabetic Therapy: Dorzagliatin Chin. Pharm. J. 2024 59 651 656; settings: in vitro studies; cited from earlier work
[9] = set-up: method as in PMID 35551294; settings: cited from earlier work
[10] = system: fasting plasma glucose (∆FPG); test: PK/PD sigmoid Emax model of dorzagliatin plasma concentration vs ∆FPG; format: in vivo, BALB/c nude mice
Experimental: To further characterize the pharmacokinetics of the compounds, a two-compartment model with first-order absorption was developed using the Phoenix Model module in Phoenix software. The AIC method was applied to identify the most suitable pharmacokinetic model. This model facilitated the comprehensive evaluation of the pharmacokinetic behavior of the drugs under investigation.
To evaluate the effect of the test compounds on blood glucose levels, 10 μL of blood was collected from the tail veins of mice at baseline (time 0) and at predetermined time points (0.5, 1, 2, 4, 6, and 8 h) post-administration. Blood glucose levels were measured using a OneTouch Ultra glucometer. Changes in FPG levels over time were monitored and analyzed. ∆FPG was calculated using Equation (5):(5) ∆FPG=FPGcontrol−FPGexp/FPGcontrol×100% where: • FPGexp represents the FPG levels in the dorzagliatin group, dorzagliatin + WX390 group, or the dorzagliatin + BYL719 group. • FPGcontrol represents the FPG levels in the vehicle control group, WX390 group, or BYL719 group.
A preliminary PK/PD interaction model was developed using plasma concentrations and FPG levels in tumor-bearing mice. The relationship between plasma drug concentrations and FPG reduction was described using the Sigmoid Eₘₐₓ model (Equation (6)):(6) E=E0+Emax×Ce^γ/EC50γ+Ce^γ where: • E represents the mean percent blood glucose reduction. • Cₑ indicates the plasma concentration of the drug that elicits a pharmacodynamic response. • E0 is the baseline drug effect. • Eₘₐₓ represents the maximum potential drug effect. • EC50 is the plasma concentration at which 50% of the maximum drug effect is observed. • γ denotes the Hill coefficient, which reflects the steepness of the concentration-effect curve.

[11] = cited from earlier work; remark: listed apart in the source
[12] = female, BALB/c nude, mouse, plasma, po, 25 mg/kg, PI3Ki measured in combination group with Dorz 10 mg/kg (given 30 min before), WX390 0.2 mg/kg or BYL719 25 mg/kg oral
[13] = female, BALB/c nude, mouse, plasma, po, 25 mg/kg, monotherapy group, plasma, oral gavage once daily for four weeks, Dorz 10 mg/kg, WX390 0.2 mg/kg, BYL719 25 mg/kg
[14] = Dorz 10 mg/kg measured in Dorz + BYL719 (25 mg/kg) group, oral
[15] = Dorz 10 mg/kg measured in Dorz + WX390 (0.2 mg/kg) group, oral
[16] = monotherapy group, plasma, oral gavage once daily for four weeks, Dorz 10 mg/kg, WX390 0.2 mg/kg, BYL719 25 mg/kg
[17] = E = mean percent blood glucose reduction (∆FPG)
[18] = co-administration with moderate CYP3A4 inhibitors such as verapamil, fluconazole, erythromycin

Compound: Cc1nc(NC(=O)N2CCC[C@H]2C(N)=O)sc1-c1ccnc(C(C)(C)C(F)(F)F)c1 [BYL719, alpelisib]
- CYP3A4 inhibitor status [1]: not a CYP3A4 inhibitor
- Tmax ([2]; PI3Ki measured in combination group with Dorz 10 mg/kg (given 30 min before), WX390 0.2 mg/kg or BYL719 25 mg/kg oral): 1.00 h
- AUC(0-t) [2, 12]: 24800 ng·h/mL
- half-life [2, 12]: 6.72 h
- Cmax ([2]; female, BALB/c nude, mouse, plasma, po, 25 mg/kg, PI3Ki measured in combination group with Dorz 10 mg/kg (given 30 min before), WX390 0.2 mg/kg or BYL719 25 mg/kg oral, read-out: Cmax): 4210 ng/mL
- AUC(0-t) [2, 13]: 29000 ng·h/mL
- half-life [2, 13]: 5.33 h
- Cmax ([2]; female, BALB/c nude, mouse, plasma, po, 25 mg/kg, monotherapy group, plasma, oral gavage once daily for four weeks, Dorz 10 mg/kg, WX390 0.2 mg/kg, BYL719 25 mg/kg, read-out: Cmax): 4790 ng/mL
- Tmax ([2]; female, BALB/c nude, mouse, monotherapy group, plasma, oral gavage once daily for four weeks, Dorz 10 mg/kg, WX390 0.2 mg/kg, BYL719 25 mg/kg, read-out: Tmax): 1 h
- rate of hyperglycemia, any grade [3]: 63.7%
- rate of hyperglycemia, grades 3–4 [3]: 36.6%
- treatment discontinuation rate due to hyperglycemia [3]: 6.3%
- P-gp inhibitor status [4]: P-gp inhibitor
- metabolic route (in vitro studies) [5]: primarily metabolized through chemical degradation and enzymatic hydrolysis
- T/C (Relative Tumor Growth Rate) [6]: 52.85%
- TGI (Tumor Growth Inhibition) [6]: 52.46%
- Tumor Volume (Day 28) [6]: 836 mm^3 and 836 ± 71 mm^3
- AUC0→24h ([7]; 300 mg/day): 33,224 ng·h/mL
- Cmax ([7]; 300 mg/day): 2480 ng/mL
- apparent volume of distribution [7]: 114 L
- clearance rate [7]: 9.2 L/h
- effect of food intake on pharmacokinetic profile [7]: does not significantly affect
- plasma protein binding rate [7]: 89%
- dose proportionality of exposure ([7]; fed conditions, doses 30 to 450 mg): increases proportionally

Compound: CC(C)C[C@@H](C(=O)Nc1ccn(C[C@@H](O)CO)n1)N1CC(Oc2ccccc2Cl)=CC1=O [Dorz, Dorzagliatin]
- AUC0→t [2, 14]: 3953.58 ng·h/mL
- Cmax [2, 14]: 2013.33 ng/mL
- Tmax [2, 14]: 1.00 h
- t1/2 [2, 14]: 1.86 h
- AUC0→t [2, 15]: 4657.23 ng·h/mL
- Cmax [2, 15]: 1776.67 ng/mL
- Tmax [2, 15]: 0.50 h
- t1/2 [2, 15]: 2.93 h
- AUC0→t [2, 16]: 3287.90 ng·h/mL
- Cmax [2, 16]: 1331.00 ng/mL
- Tmax [2, 16]: 0.50 h
- t1/2 [2, 16]: 2.15 h
- inhibition of CYP1A2, 2A6, 2C9, 2C19, 2D6, 2E1, CYP3A4/5 [8]: does not inhibit
- P-gp substrate status [4]: substrate of P-gp
- T/C (Relative Tumor Growth Rate) [6]: 90.81%
- TGI (Tumor Growth Inhibition) [6]: 10.19%
- Tumor Volume (Day 28) [6]: 1437 ± 172 mm^3
- patients with clinically significant hypoglycemic events (blood glucose < 54 mg/dL) ([9]; 24-week double-blind treatment period, 1 of 310 patients): 0.3%
- exposure-adjusted event rate for clinically significant hypoglycemia ([9]; 52-week observation period): 0.006 events per patient-year
- E0 (baseline drug effect) in PK/PD equation [10, 17]: 10
- Emax (maximum potential drug effect) in PK/PD equation [10, 17]: 50%
- EC50 (∆FPG as indicator) ([10]; dorzagliatin plasma concentration giving 50% of maximum effect, per treatment group): 0.74 µg/mL (≈ 1.6 µM)
- Hill coefficient (γ) ([10]; ∆FPG, per treatment group): 0.80
- time to steady-state plasma pharmacokinetics ([11]; T2DM patients, twice-daily oral administration): ≤ 4 days
- AUCtau ([11]; after oral administration): 5570 ng·h/mL
- Cmax ([11]; after oral administration): 1090 ng/mL
- median Tmax ([11]; after oral administration): 1.31 h
- Metabolism [11]: primarily occurs in the liver via cytochrome P450 enzyme 3A4 (CYP3A4)
- fold increase in AUC0→t of dorzagliatin [11, 18]: 2.4 fold
- fold increase in Cmax of dorzagliatin [11, 18]: 1.2 fold
- mean apparent volume of distribution ([11]; single 50 mg oral dose, healthy subjects): 115 L
